Values after ≈ are worked out from the molar mass of the structure shown. Where two headings read alike, the source gives them in different places.
Assays:
A. baumannii = experiment: MIC, CLSI microtiter dilution, A. baumannii; assay type: cell-based, Acinetobacter baumannii
Protocol: (§1) The products of the present invention were tested for their activity against A. baumannii as well as against the following bacteria: Staphylococcus aureus (S. aureus), Streptococcus pneumoniae (S. pneumoniae), Enterococcus faecium (E. faecium), Pseudomonas aeruginosa (P. aeruginosa), Klebsiella pneumoniae (K. pneumoniae.), Enterobacter aerogenes (E. aerogenes) and Escherichia coli (E. coli).
(§2) Minimal inhibitory concentrations (MICs) were determined using a standard microtiter dilution method, according to the Clinical and Laboratory Standards Institute (CLSI) procedures, in particular according to M07-A9: “Methods for Dilution Antimicrobial Susceptibility Tests for Bacteria That Grow Aerobically; Approved Standard—Ninth Edition”.
(§3) Briefly, compounds were dissolved with dimethyl sulfoxide (DMSO) at 12.8 mg/mL. Serial two-fold dilutions of compounds were performed in DMSO and 1 μl of each dilution were transferred into microtiter culture plates, followed by 100 μl of inoculated culture media to give a final microorganism concentration of 5×10^5 colony-forming units/mL. Plates were incubated at 37° C. for 24 hours and MICs determined as the lowest compound concentration that inhibited growth. Media used in determinations were Cation adjusted Mueller-Hinton Broth for all the microorganisms except for S. pneumoniae and E. faecium whose culture media were supplemented with 2.5% of lysed horse blood. Incubations were performed at air atmosphere except S. pneumoniae cultures that were incubated with 5% CO2 atmosphere.

S. aureus = experiment: MIC, CLSI microtiter dilution, S. aureus; assay type: cell-based, Staphylococcus aureus
Protocol: as §1, §2, §3

S. pneumoniae = experiment: MIC, CLSI microtiter dilution, S. pneumoniae; assay type: cell-based, Streptococcus pneumoniae
Protocol: as §1, §2, §3

E. faecium = experiment: MIC, CLSI microtiter dilution, E. faecium; assay type: cell-based, Enterococcus faecium
Protocol: as §1, §2, §3

P. aeruginosa = experiment: MIC, CLSI microtiter dilution, P. aeruginosa; assay type: cell-based, Pseudomonas aeruginosa
Protocol: as §1, §2, §3

K. pneumoniae = experiment: MIC, CLSI microtiter dilution, K. pneumoniae; assay type: cell-based, Klebsiella pneumoniae
Protocol: as §1, §2, §3

E. aerogenes = experiment: MIC, CLSI microtiter dilution, E. aerogenes; assay type: cell-based, Enterobacter aerogenes
Protocol: as §1, §2, §3

E. coli = experiment: MIC, CLSI microtiter dilution, E. coli; assay type: cell-based, Escherichia coli
Protocol: as §1, §2, §3

[1] = Acinetobacter baumannii, A. baumannii, 37° C., 24 hours, Cation adjusted Mueller-Hinton Broth, read-out: MIC
[2] = Staphylococcus aureus, S. aureus, 37° C., 24 hours, Cation adjusted Mueller-Hinton Broth, read-out: MIC
[3] = Streptococcus pneumoniae, S. pneumoniae, 37° C., 24 hours, 2.5% lysed horse blood, 5% CO2, read-out: MIC
[4] = Enterococcus faecium, E. faecium, 37° C., 24 hours, 2.5% lysed horse blood, read-out: MIC
[5] = Pseudomonas aeruginosa, P. aeruginosa, 37° C., 24 hours, Cation adjusted Mueller-Hinton Broth, read-out: MIC
[6] = Klebsiella pneumoniae, K. pneumoniae, 37° C., 24 hours, Cation adjusted Mueller-Hinton Broth, read-out: MIC
[7] = Klebsiella aerogenes, E. aerogenes, 37° C., 24 hours, Cation adjusted Mueller-Hinton Broth, read-out: MIC
[8] = Escherichia coli, E. coli, 37° C., 24 hours, Cation adjusted Mueller-Hinton Broth, read-out: MIC

COc1ccc(NNC(=O)c2cccc(=O)n2C)cc1 [Ex. 9, 1-Methyl-6-oxo-1,6-dihydropyridine-2-carboxylic acid N′-(4-methoxyphenyl)-hydrazide]
MIC (A. baumannii; Acinetobacter baumannii, 24 h): 0.25 µg/mL (≈ 0.915 µM)
MIC (S. aureus; Staphylococcus aureus, 24 h): > 128 µg/mL
MIC (S. pneumoniae; Streptococcus pneumoniae, 24 h): > 128 µg/mL
MIC (E. faecium; Enterococcus faecium, 24 h): > 128 µg/mL
MIC (P. aeruginosa; Pseudomonas aeruginosa, 24 h): > 128 µg/mL
MIC (K. pneumoniae; Klebsiella pneumoniae, 24 h): > 128 µg/mL
MIC (E. aerogenes; Klebsiella aerogenes, 24 h): > 128 µg/mL
MIC (E. coli; Escherichia coli, 24 h): > 128 µg/mL

CCn1c(C(=O)NNc2ccc(F)cc2)cccc1=O [Ex. 2, 1-Ethyl-6-oxo-1,6-dihydro-pyridine-2-carboxylic acid N′-(4-fluoro-phenyl)-hydrazide]
MIC (A. baumannii; Acinetobacter baumannii, 24 h): 1 µg/mL (≈ 3.63 µM)
MIC (S. aureus; Staphylococcus aureus, 24 h): > 128 µg/mL
MIC (S. pneumoniae; Streptococcus pneumoniae, 24 h): > 128 µg/mL
MIC (E. faecium; Enterococcus faecium, 24 h): > 128 µg/mL
MIC (P. aeruginosa; Pseudomonas aeruginosa, 24 h): > 128 µg/mL
MIC (K. pneumoniae; Klebsiella pneumoniae, 24 h): > 128 µg/mL
MIC (E. aerogenes; Klebsiella aerogenes, 24 h): > 128 µg/mL
MIC (E. coli; Escherichia coli, 24 h): > 128 µg/mL

Cn1c(C(=O)NNc2ccc(F)cc2)cccc1=O [Ex. 1, 1-Methyl-6-oxo-1,6-dihydro-pyridine-2-carboxylic acid N′-(4-fluoro-phenyl)-hydrazide]
MIC (A. baumannii; [1]): 0.5 µg/mL (≈ 1.91 µM)
MIC (S. aureus; [2]): > 128 µg/mL
MIC (S. pneumoniae; [3]): > 128 µg/mL
MIC (E. faecium; [4]): > 128 µg/mL
MIC (P. aeruginosa; [5]): > 128 µg/mL
MIC (K. pneumoniae; [6]): > 128 µg/mL
MIC (E. aerogenes; [7]): > 128 µg/mL
MIC (E. coli; [8]): 64 µg/mL (≈ 245 µM)

Cn1c(C(=O)NNc2ccc(F)cc2F)cccc1=O [Ex. 12, 1-Methyl-6-oxo-1,6-dihydropyridine-2-carboxylic acid N′-(2,4-difluorophenyl)-hydrazide]
MIC (A. baumannii; Acinetobacter baumannii, 24 h): 0.25 µg/mL (≈ 0.895 µM)
MIC (S. aureus; Staphylococcus aureus, 24 h): > 128 µg/mL
MIC (S. pneumoniae; Streptococcus pneumoniae, 24 h): > 128 µg/mL
MIC (E. faecium; Enterococcus faecium, 24 h): > 128 µg/mL
MIC (P. aeruginosa; Pseudomonas aeruginosa, 24 h): > 128 µg/mL
MIC (K. pneumoniae; Klebsiella pneumoniae, 24 h): > 128 µg/mL
MIC (E. aerogenes; Klebsiella aerogenes, 24 h): > 128 µg/mL
MIC (E. coli; Escherichia coli, 24 h): > 128 µg/mL

Cn1c(C(=O)NNc2c(F)cccc2F)cccc1=O [Ex. 13, 1-Methyl-6-oxo-1,6-dihydropyridine-2-carboxylic acid N′-(2,6-difluorophenyl)-hydrazide]
MIC (A. baumannii; Acinetobacter baumannii, 24 h): 0.5 µg/mL (≈ 1.79 µM)
MIC (S. aureus; Staphylococcus aureus, 24 h): > 128 µg/mL
MIC (S. pneumoniae; Streptococcus pneumoniae, 24 h): > 128 µg/mL
MIC (E. faecium; Enterococcus faecium, 24 h): > 128 µg/mL
MIC (P. aeruginosa; Pseudomonas aeruginosa, 24 h): > 128 µg/mL
MIC (K. pneumoniae; Klebsiella pneumoniae, 24 h): > 128 µg/mL
MIC (E. aerogenes; Klebsiella aerogenes, 24 h): > 128 µg/mL
MIC (E. coli; Escherichia coli, 24 h): > 128 µg/mL

CCn1cccc(C(=O)NNc2ccc(F)cc2)c1=O [Ex. 16, 1-Ethyl-2-oxo-1,2-dihydropyridine-3-carboxylic acid N′-(4-fluorophenyl)-hydrazide]
MIC (A. baumannii; [1]): 0.5 µg/mL (≈ 1.82 µM)
MIC (S. aureus; [2]): > 128 µg/mL
MIC (S. pneumoniae; [3]): > 128 µg/mL
MIC (E. faecium; [4]): > 128 µg/mL
MIC (P. aeruginosa; [5]): > 128 µg/mL
MIC (K. pneumoniae; [6]): > 128 µg/mL
MIC (E. aerogenes; [7]): > 128 µg/mL
MIC (E. coli; [8]): > 128 µg/mL

O=C(NNc1ccc(F)cc1)c1cccc(=O)n1Cc1ccccc1 [Ex. 5, 1-Benzyl-6-oxo-1,6-dihydro-pyridine-2-carboxylic acid N′-(4-fluorophenyl)-hydrazide]
MIC (A. baumannii; [1]): 0.25 µg/mL (≈ 0.741 µM)
MIC (S. aureus; [2]): > 128 µg/mL
MIC (S. pneumoniae; [3]): > 128 µg/mL
MIC (E. faecium; [4]): > 128 µg/mL
MIC (P. aeruginosa; [5]): > 128 µg/mL
MIC (K. pneumoniae; [6]): > 128 µg/mL
MIC (E. aerogenes; [7]): > 128 µg/mL
MIC (E. coli; [8]): > 128 µg/mL

CN(C)C(=O)Cn1c(C(=O)NNc2ccc(F)cc2)cccc1=O [Ex. 14, 1-(2-(Dimethylamino)-2-oxoethyl)-6-oxo-1,6-dihydropyridine-2-carboxylic acid N′-(4-fluorophenyl)-hydrazide]
MIC (A. baumannii; Acinetobacter baumannii, 24 h): 0.25 µg/mL (≈ 0.752 µM)
MIC (S. aureus; Staphylococcus aureus, 24 h): > 128 µg/mL
MIC (S. pneumoniae; Streptococcus pneumoniae, 24 h): > 128 µg/mL
MIC (E. faecium; Enterococcus faecium, 24 h): > 128 µg/mL
MIC (P. aeruginosa; Pseudomonas aeruginosa, 24 h): > 128 µg/mL
MIC (K. pneumoniae; Klebsiella pneumoniae, 24 h): > 128 µg/mL
MIC (E. aerogenes; Klebsiella aerogenes, 24 h): > 128 µg/mL
MIC (E. coli; Escherichia coli, 24 h): > 128 µg/mL

Cn1ccc(C(=O)NNc2ccc(F)cc2)cc1=O [Ex. 18, 1-Methyl-2-oxo-1,2-dihydropyridine-4-carboxylic acid N′-(4-fluorophenyl)-hydrazide]
MIC (A. baumannii; [1]): 0.25 µg/mL (≈ 0.957 µM)
MIC (S. aureus; [2]): > 128 µg/mL
MIC (S. pneumoniae; [3]): > 128 µg/mL
MIC (E. faecium; [4]): > 128 µg/mL
MIC (P. aeruginosa; [5]): > 128 µg/mL
MIC (K. pneumoniae; [6]): > 128 µg/mL
MIC (E. aerogenes; [7]): > 128 µg/mL
MIC (E. coli; [8]): > 128 µg/mL

NC(=O)Cn1c(C(=O)NNc2ccc(F)cc2)cccc1=O [Ex. 15, 1-(2-Amino-2-oxoethyl)-6-oxo-1,6-dihydropyridine-2-carboxylic acid N′-(4-fluorophenyl)-hydrazide]
MIC (A. baumannii; Acinetobacter baumannii, 24 h): 0.5 µg/mL (≈ 1.64 µM)
MIC (S. aureus; Staphylococcus aureus, 24 h): > 128 µg/mL
MIC (S. pneumoniae; Streptococcus pneumoniae, 24 h): > 128 µg/mL
MIC (E. faecium; Enterococcus faecium, 24 h): > 128 µg/mL
MIC (P. aeruginosa; Pseudomonas aeruginosa, 24 h): > 128 µg/mL
MIC (K. pneumoniae; Klebsiella pneumoniae, 24 h): > 128 µg/mL
MIC (E. aerogenes; Klebsiella aerogenes, 24 h): > 128 µg/mL
MIC (E. coli; Escherichia coli, 24 h): > 128 µg/mL

COCCn1c(C(=O)NNc2ccc(F)cc2)cccc1=O [Ex. 3, 1-(2-methoxyethyl)-6-oxo-1,6-dihydro-pyridine-2-carboxylic acid N′-(4-fluorophenyl)-hydrazide]
MIC (A. baumannii; Acinetobacter baumannii, 24 h): < 0.25 µg/mL
MIC (S. aureus; Staphylococcus aureus, 24 h): > 128 µg/mL
MIC (S. pneumoniae; Streptococcus pneumoniae, 24 h): > 128 µg/mL
MIC (E. faecium; Enterococcus faecium, 24 h): > 128 µg/mL
MIC (P. aeruginosa; Pseudomonas aeruginosa, 24 h): > 128 µg/mL
MIC (K. pneumoniae; Klebsiella pneumoniae, 24 h): > 128 µg/mL
MIC (E. aerogenes; Klebsiella aerogenes, 24 h): > 128 µg/mL
MIC (E. coli; Escherichia coli, 24 h): > 128 µg/mL

CN(NC(=O)c1cccc(=O)n1C)c1ccc(F)cc1 [Ex. 20, 1-Methyl-6-oxo-1,6-dihydropyridine-2-carboxylic acid N′-(4-fluorophenyl)-N′-methyl-hydrazide]
MIC (A. baumannii; Acinetobacter baumannii, 24 h): 64 µg/mL (≈ 232 µM)
MIC (S. aureus; Staphylococcus aureus, 24 h): > 128 µg/mL
MIC (S. pneumoniae; Streptococcus pneumoniae, 24 h): > 128 µg/mL
MIC (E. faecium; Enterococcus faecium, 24 h): > 128 µg/mL
MIC (P. aeruginosa; Pseudomonas aeruginosa, 24 h): > 128 µg/mL
MIC (K. pneumoniae; Klebsiella pneumoniae, 24 h): > 128 µg/mL
MIC (E. aerogenes; Klebsiella aerogenes, 24 h): > 128 µg/mL
MIC (E. coli; Escherichia coli, 24 h): > 128 µg/mL

Cn1cc(C(=O)NNc2ccc(F)cc2)ccc1=O [Ex. 19, 1-Methyl-6-oxo-1,6-dihydropyridine-3-carboxylic acid N′-(4-fluorophenyl)-hydrazide]
MIC (A. baumannii; [1]): 0.25 µg/mL (≈ 0.957 µM)
MIC (S. aureus; [2]): > 128 µg/mL
MIC (S. pneumoniae; [3]): > 128 µg/mL
MIC (E. faecium; [4]): > 128 µg/mL
MIC (P. aeruginosa; [5]): > 128 µg/mL
MIC (K. pneumoniae; [6]): > 128 µg/mL
MIC (E. aerogenes; [7]): > 128 µg/mL
MIC (E. coli; [8]): > 128 µg/mL

1-Cyclopropylmethyl-6-oxo-1,6-dihydro-pyridine-2-carboxylic acid N′-(4-fluorophenyl)-hydrazide [Ex. 6]
MIC (A. baumannii; A. baumannii, 37° C., 24 hours, Cation adjusted Mueller-Hinton Broth): <0.25 µg/mL
MIC (S. aureus; S. aureus, 37° C., 24 hours, Cation adjusted Mueller-Hinton Broth): >128 µg/mL
MIC (S. pneumoniae; S. pneumoniae, 37° C., 24 hours, 2.5% lysed horse blood, 5% CO2): >128 µg/mL
MIC (E. faecium; E. faecium, 37° C., 24 hours, 2.5% lysed horse blood): >128 µg/mL
MIC (P. aeruginosa; P. aeruginosa, 37° C., 24 hours, Cation adjusted Mueller-Hinton Broth): >128 µg/mL
MIC (K. pneumoniae; K. pneumoniae, 37° C., 24 hours, Cation adjusted Mueller-Hinton Broth): >128 µg/mL
MIC (E. aerogenes; E. aerogenes, 37° C., 24 hours, Cation adjusted Mueller-Hinton Broth): >128 µg/mL
MIC (E. coli; E. coli, 37° C., 24 hours, Cation adjusted Mueller-Hinton Broth): >128 µg/mL

Reference: patent US9840467B2, “Arylhydrazides containing a 2-pyridone moiety as selective antibacterial agents” (ABAC THERAPEUTICS, S.L., priority 2014, dated 2017)
